Data taken from ChEMBL document CHEMBL1201862, “PubChem BioAssay data set” (2004).
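Tested at 5 concentrations; 48 h exposure; 96-well plates; endpoints linearly interpolated, else capped at highest concentration. At the GI50, growth is halved.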 Calls of active or inactive are those of the source. No stated cut-off is given here; in the data, active = GI50 up to about 1.1 µM and inactive = higher.

Columns and labels:
Assay in all cases: NCI-60 cell line screen, 48 h
A549 = tested on: A549
NCI/ADR-RES = tested on: NCI/ADR-RES
NCI-H23 = tested on: NCI-H23
UO-31 = tested on: UO-31
SF-268 = tested on: SF-268
Malme-3M = tested on: Malme-3M
CAKI-1 = tested on: CAKI-1
EKVX = tested on: EKVX
OVCAR-5 = tested on: OVCAR-5
M14 = tested on: M14
TK-10 = tested on: TK-10
HCT-116 = tested on: HCT-116
MDA-N = tested on: MDA-N
HOP-92 = tested on: HOP-92
MOLT-4 = tested on: MOLT-4
RPMI-8226 = tested on: RPMI-8226
HL-60 = tested on: HL-60
UACC-257 = tested on: UACC-257
LOX IMVI = tested on: LOX IMVI
HCC 2998 = tested on: HCC 2998
OVCAR-8 = tested on: OVCAR-8
SW-620 = tested on: SW-620
IGROV-1 = tested on: IGROV-1
NCI-H460 = tested on: NCI-H460
786-0 = tested on: 786-0
SK-OV-3 = tested on: SK-OV-3
HOP-62 = tested on: HOP-62
Hs-578T = tested on: Hs-578T
BT-549 = tested on: BT-549
SF-295 = tested on: SF-295
K562 = tested on: K562
SN12C = tested on: SN12C
MDA-MB-435 = tested on: MDA-MB-435
UACC-62 = tested on: UACC-62
OVCAR-3 = tested on: OVCAR-3
SR = tested on: SR
ACHN = tested on: ACHN
HT-29 = tested on: HT-29
HCT-15 = tested on: HCT-15
NCI-H522 = tested on: NCI-H522
SNB-19 = tested on: SNB-19
CCRF-CEM = tested on: CCRF-CEM
MDA-MB-231 = tested on: MDA-MB-231
SF-539 = tested on: SF-539
SK-MEL-5 = tested on: SK-MEL-5
RXF 393 = tested on: RXF 393
NCI-H226 = tested on: NCI-H226
MCF7 = tested on: MCF7
KM12 = tested on: KM12
COLO 205 = tested on: COLO 205
DU-145 = tested on: DU-145
PC-3 = tested on: PC-3
T47D = tested on: T47D
U-251 = tested on: U-251
SK-MEL-28 = tested on: SK-MEL-28
SK-MEL-2 = tested on: SK-MEL-2
A498 = tested on: A498
OVCAR-4 = tested on: OVCAR-4
SNB-75 = tested on: SNB-75

For `COc1ccc2c3c1O[C@H]1C(OC)C=CC4C(C2)N(Cc2cccs2)CCC341` (stereo partly specified), the GI50 (A549) was 53.8 µM (inactive), the GI50 (NCI/ADR-RES) was 33.7 µM (inactive) and the GI50 (NCI-H23) was 38.8 µM (inactive). For the same compound, the GI50 (UO-31) was > 100 µM (inactive), the GI50 (SF-268) was > 100 µM (inactive) and the GI50 (Malme-3M) was > 100 µM (inactive). The GI50 (CAKI-1) was > 100 µM (inactive), the GI50 (EKVX) was 88.3 µM (inactive) and the GI50 (OVCAR-5) was > 100 µM (inactive). The GI50 (M14) was 70.6 µM (inactive), the GI50 (TK-10) was 92.5 µM (inactive) and the GI50 (HCT-116) was 49.2 µM (inactive). For the same compound, the GI50 (MDA-N) was 60 µM (inactive), the GI50 (HOP-92) was > 100 µM (inactive) and the GI50 (MOLT-4) was > 100 µM (inactive). For the same compound, the GI50 (RPMI-8226) was 62.1 µM (inactive), the GI50 (HL-60) was 24 µM (inactive) and the GI50 (UACC-257) was 44.4 µM (inactive). The GI50 (LOX IMVI) was > 100 µM (inactive), the GI50 (HCC 2998) was > 100 µM (inactive) and the GI50 (OVCAR-8) was 77.4 µM (inactive). The GI50 (SW-620) was > 100 µM (inactive), the GI50 (IGROV-1) was > 100 µM (inactive) and the GI50 (NCI-H460) was > 100 µM (inactive). For the same compound, the GI50 (786-0) was > 100 µM (inactive), the GI50 (SK-OV-3) was > 100 µM (inactive) and the GI50 (HOP-62) was > 100 µM (inactive). The GI50 (Hs-578T) was > 100 µM (inactive), the GI50 (BT-549) was 40.1 µM (inactive) and the GI50 (SF-295) was 61 µM (inactive). For the same compound, the GI50 (K562) was 51.6 µM (inactive), the GI50 (SN12C) was > 100 µM (inactive) and the GI50 (MDA-MB-435) was 41.5 µM (inactive). The GI50 (UACC-62) was > 10 µM (inactive), the GI50 (OVCAR-3) was 45.4 µM (inactive) and the GI50 (SR) was 75.5 µM (inactive). For the same compound, the GI50 (ACHN) was > 10 µM (inactive), the GI50 (HT-29) was 69.7 µM (inactive) and the GI50 (HCT-15) was 55.2 µM. The GI50 (NCI-H522) was > 100 µM (inactive), the GI50 (SNB-19) was > 100 µM (inactive) and the GI50 (CCRF-CEM) was 49.7 µM (inactive).

For `O=P(O)(O)C(N=C(Nc1ccccc1)Nc1ccccc1)P(=O)(O)O`, the GI50 (MDA-MB-231) was > 100 µM (inactive), the GI50 (SF-539) was > 100 µM (inactive) and the GI50 (A549) was > 100 µM (inactive). For the same compound, the GI50 (NCI/ADR-RES) was > 100 µM (inactive), the GI50 (NCI-H23) was > 100 µM (inactive) and the GI50 (UO-31) was > 100 µM (inactive). For the same compound, the GI50 (SF-268) was > 100 µM (inactive), the GI50 (Malme-3M) was > 100 µM (inactive) and the GI50 (CAKI-1) was > 100 µM (inactive). The GI50 (EKVX) was > 100 µM (inactive), the GI50 (OVCAR-5) was > 100 µM (inactive) and the GI50 (M14) was > 100 µM (inactive). For the same compound, the GI50 (TK-10) was > 100 µM (inactive), the GI50 (SK-MEL-5) was > 100 µM (inactive) and the GI50 (HCT-116) was > 100 µM (inactive). The GI50 (RXF 393) was > 100 µM (inactive), the GI50 (MDA-N) was > 100 µM (inactive) and the GI50 (NCI-H226) was > 100 µM (inactive). The GI50 (MCF7) was > 100 µM (inactive), the GI50 (UACC-257) was > 100 µM (inactive) and the GI50 (LOX IMVI) was > 100 µM (inactive). For the same compound, the GI50 (HCC 2998) was > 100 µM (inactive), the GI50 (OVCAR-8) was > 100 µM (inactive) and the GI50 (KM12) was > 100 µM (inactive). The GI50 (IGROV-1) was > 100 µM (inactive), the GI50 (NCI-H460) was > 100 µM (inactive) and the GI50 (786-0) was > 100 µM (inactive). The GI50 (SK-OV-3) was > 100 µM (inactive), the GI50 (HOP-62) was > 100 µM (inactive) and the GI50 (Hs-578T) was > 100 µM (inactive). For the same compound, the GI50 (BT-549) was > 100 µM (inactive), the GI50 (SF-295) was > 100 µM (inactive) and the GI50 (COLO 205) was > 100 µM (inactive). The GI50 (DU-145) was > 100 µM (inactive), the GI50 (UACC-62) was > 100 µM (inactive) and the GI50 (OVCAR-3) was > 100 µM (inactive). The GI50 (ACHN) was > 100 µM (inactive), the GI50 (HT-29) was > 100 µM (inactive) and the GI50 (PC-3) was > 100 µM (inactive). For the same compound, the GI50 (HCT-15) was over 100 µM, the GI50 (NCI-H522) was > 100 µM (inactive) and the GI50 (SNB-19) was > 100 µM (inactive).

For `O=C1OC(c2ccc([N+](=O)[O-])cc2)=N/C1=C\c1ccc(O)cc1`, the GI50 (MDA-MB-231) was > 100 µM (inactive), the GI50 (SF-539) was > 100 µM (inactive) and the GI50 (A549) was > 100 µM (inactive). For the same compound, the GI50 (NCI-H23) was > 100 µM (inactive), the GI50 (SF-268) was > 100 µM (inactive) and the GI50 (Malme-3M) was > 100 µM (inactive). The GI50 (CAKI-1) was > 100 µM (inactive), the GI50 (T47D) was > 100 µM (inactive) and the GI50 (EKVX) was > 100 µM (inactive). The GI50 (OVCAR-5) was > 100 µM (inactive), the GI50 (M14) was > 100 µM (inactive) and the GI50 (TK-10) was > 100 µM (inactive). For the same compound, the GI50 (SK-MEL-5) was > 100 µM (inactive), the GI50 (HCT-116) was > 100 µM (inactive) and the GI50 (RXF 393) was > 100 µM (inactive). For the same compound, the GI50 (MDA-N) was > 100 µM (inactive), the GI50 (HOP-92) was > 100 µM (inactive) and the GI50 (MOLT-4) was > 100 µM (inactive). The GI50 (NCI-H226) was > 100 µM (inactive), the GI50 (RPMI-8226) was > 100 µM (inactive) and the GI50 (MCF7) was > 100 µM (inactive). For the same compound, the GI50 (HL-60) was > 100 µM (inactive), the GI50 (U-251) was > 100 µM (inactive) and the GI50 (UACC-257) was > 100 µM (inactive). The GI50 (LOX IMVI) was > 100 µM (inactive), the GI50 (HCC 2998) was > 100 µM (inactive) and the GI50 (OVCAR-8) was > 100 µM (inactive). For the same compound, the GI50 (SW-620) was > 100 µM (inactive), the GI50 (KM12) was > 100 µM (inactive) and the GI50 (SK-MEL-28) was > 100 µM (inactive). The GI50 (IGROV-1) was > 100 µM (inactive), the GI50 (SK-MEL-2) was > 100 µM (inactive) and the GI50 (A498) was > 100 µM (inactive). For the same compound, the GI50 (NCI-H460) was > 100 µM (inactive), the GI50 (786-0) was > 100 µM (inactive) and the GI50 (SK-OV-3) was > 100 µM (inactive). For the same compound, the GI50 (HOP-62) was > 100 µM (inactive), the GI50 (Hs-578T) was > 100 µM (inactive) and the GI50 (BT-549) was > 100 µM (inactive). The GI50 (SF-295) was > 100 µM (inactive), the GI50 (K562) was > 100 µM (inactive) and the GI50 (SN12C) was > 100 µM (inactive). The GI50 (COLO 205) was > 100 µM (inactive), the GI50 (MDA-MB-435) was > 100 µM (inactive) and the GI50 (DU-145) was > 100 µM (inactive). For the same compound, the GI50 (UACC-62) was > 100 µM (inactive), the GI50 (OVCAR-3) was > 100 µM (inactive) and the GI50 (SR) was > 100 µM (inactive). The GI50 (ACHN) was > 100 µM (inactive), the GI50 (HT-29) was > 100 µM (inactive) and the GI50 (PC-3) was > 100 µM (inactive). For the same compound, the GI50 (HCT-15) was over 100 µM, the GI50 (OVCAR-4) was > 100 µM (inactive) and the GI50 (NCI-H522) was > 100 µM (inactive). The GI50 (SNB-19) was > 100 µM (inactive), the GI50 (CCRF-CEM) was > 100 µM (inactive) and the GI50 (SNB-75) was > 100 µM (inactive).

`CCN(CC)CCNc1n[n+]([O-])c2cc([N+](=O)[O-])ccc2[n+]1[O-]` was tested, and the GI50 (A549) was 0.752 µM (active), the GI50 (NCI/ADR-RES) was 1.27 µM (inactive) and the GI50 (UO-31) was 2.94 µM (inactive). For the same compound, the GI50 (SF-268) was 1.11 µM (active), the GI50 (CAKI-1) was 0.337 µM (active) and the GI50 (EKVX) was 1.98 µM (inactive). The GI50 (OVCAR-5) was 1.92 µM (inactive), the GI50 (M14) was 0.587 µM (active) and the GI50 (SK-MEL-5) was 0.714 µM (active). The GI50 (HCT-116) was 0.483 µM (active), the GI50 (RXF 393) was 1.52 µM (inactive) and the GI50 (MDA-N) was 0.863 µM (active). For the same compound, the GI50 (NCI-H226) was 1.7 µM (inactive), the GI50 (U-251) was 1.08 µM (active) and the GI50 (LOX IMVI) was 0.601 µM (active). For the same compound, the GI50 (OVCAR-8) was 0.538 µM (active), the GI50 (KM12) was 0.948 µM (active) and the GI50 (SK-MEL-28) was 6.32 µM (inactive). The GI50 (IGROV-1) was 0.191 µM (active), the GI50 (A498) was 1.79 µM (inactive) and the GI50 (SK-OV-3) was 1.05 µM (active). The GI50 (HOP-62) was 0.661 µM (active), the GI50 (Hs-578T) was 2.59 µM (inactive) and the GI50 (BT-549) was 2.37 µM (inactive). The GI50 (COLO 205) was 0.605 µM (active), the GI50 (MDA-MB-435) was 1.38 µM (inactive) and the GI50 (OVCAR-3) was 0.893 µM (active). For the same compound, the GI50 (HT-29) was 0.374 µM (active), the GI50 (OVCAR-4) was 1.31 µM (inactive) and the GI50 (SNB-19) was 1.4 µM (inactive).
